# From patent publication US7407760B2 (priority 2003, dated 2008)
# Read-outs that look alike come from different tables or passages of the source.
# Assays:
# [1] = target: Syrian hamster Sc237 PrP27-30 / immunopurified hamster PrP^C (Mesocricetus auratus, UniProt P04273); format: biochemical
# PrP^Sc [2] = target: T1, PrP^Sc (Mesocricetus auratus, UniProt P04273); format: biochemical, hamster; conditions: for effect on inhibition by CuCl2, added prior to CuCl2: 4 mM EDTA or 50 mM imidazole prior to 1 μM CuCl2; for effect on inhibition by CuCl2, added shortly after CuCl2: after 1 μM CuCl2; for effect of chelating compounds on PrP^Sc amplification: no metal added; for IC50: read-out: IC50 of inhibition of PrP^Sc amplification
# T1 sequence (P04273 23-231 limits assumed): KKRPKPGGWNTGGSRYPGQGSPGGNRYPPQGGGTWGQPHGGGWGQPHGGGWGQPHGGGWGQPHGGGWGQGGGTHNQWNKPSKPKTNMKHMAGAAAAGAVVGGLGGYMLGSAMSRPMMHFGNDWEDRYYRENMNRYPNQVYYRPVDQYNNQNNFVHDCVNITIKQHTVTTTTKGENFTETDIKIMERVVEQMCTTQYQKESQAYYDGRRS
# Hamster Sc237 PrP^Sc = Hamster Sc237 PrP^Sc (Mesocricetus auratus, UniProt P04273); format: biochemical
# Chain of Hamster Sc237 PrP^Sc (P04273 23-231 limits assumed): as above
# PrP^Sc [3] = target: T1, PrP^Sc; format: biochemical, hamster
# PrP^Sc [4] = target: T1, PrP^Sc; format: biochemical, hamster; remark: listed apart in the source
# PrP^C = PrP^C (Mesocricetus auratus, UniProt P04273)
# Chain of PrP^C (P04273 23-231 limits assumed): as above
# PrP^C/PrP^Sc binding = PrP^C/PrP^Sc binding (Mesocricetus auratus, UniProt P04273)
# Chain of PrP^C/PrP^Sc binding (P04273 23-231 limits assumed): as above
# PrP^Sc [5] = target: T1, PrP^Sc
# Chain of Syrian hamster Sc237 PrP27-30 / immunopurified hamster PrP^C (P04273 23-231 limits assumed): as above
compound,measurement,setting,value
glycogen,stimulation of PrP^Sc amplification using purified substrate,[1],did not stimulate the formation of PrP^Sc
[Cl][Mn][Cl] [MnCl2],effect of divalent metal compound on PrP^Sc amplification,PrP^Sc [2],neither MnCl2 nor CoCl2 affected PrP^Sc amplification
same,effect of pre-addition on CuCl2-mediated inhibition of PrP^Sc amplification,PrP^Sc [2],did not influence the potency of CuCl2-mediated inhibition
apyrase,effect of added enzyme on PrP^Sc amplification,Hamster Sc237 PrP^Sc,no effect
heparan sulfate proteoglycan,reconstitution of PrP^Sc amplification,PrP^Sc [3],failed to reconstitute PrP^Sc amplification
same,stimulation of PrP^Sc amplification,[1],stimulated PrP^Sc amplification only moderately
poly(U),stimulation of PrP^Sc amplification using purified substrate,[1],potently stimulated PrP^Sc amplification
O=C(O)CN(CCN(CC(=O)O)CC(=O)O)CC(=O)O [EDTA],"effect on inhibition by CuCl2, added prior to CuCl2",PrP^Sc [2],prevented inhibition of PrP^Sc amplification
same,"effect on inhibition by CuCl2, added shortly after CuCl2",PrP^Sc [2],failed to rescue PrP^Sc amplification
same,effect of chelating compounds on PrP^Sc amplification,PrP^Sc [2],not influenced
"Nc1nc2c(ncn2[C@@H]2O[C@H](CO)[C@H]3OP(=O)(O)O[C@H]32)c(=O)[nH]1 [cyclic 2′,3′-GMP, 2′,3′-cyclic guanosine monophosphate]",inhibition of PrP^Sc amplification by RNase end-product nucleotides,Hamster Sc237 PrP^Sc,Neither of these nucleotides inhibited PrP^Sc amplification
heparinase III,effect of added enzyme on PrP^Sc amplification,Hamster Sc237 PrP^Sc,no effect
[Cl-].[Cl-].[Zn+2] [ZnCl2],IC50,PrP^Sc [2],~10 µM
Nc1ccn([C@@H]2O[C@H](CO)[C@@H](OP(=O)(O)O)[C@H]2O)c(=O)n1 [3′-cytidine monophosphate],inhibition of PrP^Sc amplification by RNase end-product nucleotides,Hamster Sc237 PrP^Sc; concentrations up to 1 mM,Neither of these nucleotides inhibited PrP^Sc amplification
poly(C),stimulation of PrP^Sc amplification using purified substrate,[1],failed to stimulate PrP^Sc amplification at all concentrations tested
DNase,effect of added enzyme on PrP^Sc amplification,Hamster Sc237 PrP^Sc,did not decrease PrP^Sc amplification
heparan sulfate,stimulation of PrP^Sc amplification in the presence of copper,[1],No apparent stimulation
same,stimulation of PrP^Sc amplification using purified substrate,[1],no effect
polyglutamic acid [polyglutamate],reconstitution of PrP^Sc amplification,PrP^Sc [3]; benzonase-pretreated normal brain homogenate,failed to reconstitute PrP^Sc amplification
same,level of stimulation compared with control stimulation by total hamster RNA,[1]; purified substrate,less than the level of control stimulation
Sodium pentosan polysulfate [pentosan sulfate],stimulation of PrP^Sc amplification,[1],stimulated PrP^Sc amplification only moderately
Cc1ccc2ccc3ccc(C)nc3c2n1 [neocuproine],effect of chelating compounds on PrP^Sc amplification,PrP^Sc [2],not influenced
c1c[nH]cn1 [imidazole],effect on PrP^Sc amplification of preparation “X”,PrP^Sc [4]; 5 mM,restored PrP^Sc amplification
same,effect on PrP^Sc amplification of preparation “X”,PrP^Sc [4]; 50 mM,restored the ability of this preparation to serve as a substrate
same,effect on PrP^Sc amplification of preparation “X”,PrP^Sc [4]; 250 mM,inhibited PrP^Sc amplification
same,"effect on inhibition by CuCl2, added prior to CuCl2",PrP^Sc [2],prevented inhibition of PrP^Sc amplification
same,"effect on inhibition by CuCl2, added shortly after CuCl2",PrP^Sc [2],failed to rescue PrP^Sc amplification
[Cl][Cu][Cl] [CuCl2],IC50,PrP^Sc [2],~1 µM
same,quantity or protease-resistance of input PrP^C or PrP^Sc molecules by themselves,PrP^C,did not affect the quantity or protease-resistance
same,"PrP^C/PrP^Sc binding, ratio of PrP^C to PrP27-30 in the pellet",PrP^C/PrP^Sc binding,0.46
polyadenylic acid [poly(A)],reconstitution of PrP^Sc amplification,PrP^Sc [3],failed to reconstitute PrP^Sc amplification
same,concentration at which PrP^Sc amplification was stimulated,[1],1 µg/mL
same,threshold size required for stimulation of PrP^Sc amplification,[1],~300 bases
same,propagation of PrP^Sc conformation in serial PMCA,PrP^Sc [5],stimulated the propagation process
